Data published in patent US20230286973A1, “PROTEIN SECRETION INHIBITORS” (KEZAR LIFE SCIENCES, priority 2020, published 2023).

What was measured:
[1] = Liver Microsome Stability Assay (rat); details: rat liver microsomes, with NADPH, 1.0 uM compound
Procedure: (§1) Stability of a compound was assessed in the presence of liver microsomes from various sources—mouse, rat, monkey and human liver microsomes. 1.0 uM compound, 0.4% DMSO in 0.1 M Potassium Phosphate with 1.0 mg/mL liver microsomes, were incubated at 37° C. with or without 1 mM NADPH. The samples were quenched at 0, and 30 minutes.

[2] = tested on: IL-2-FL/Gaussia Luciferase; experiment: Dox Induced IL2-FL-Gluc Assay; assay type: cell-based; details: for IC50: 24 hr Dox induction, 293FRT/TO cells, read-out: 24 hr Dox Inducible IL2FLGluc 293FRT/TO: Mean IC50; for 24 hr Dox Inducible IL2FLGluc 293FRT/TO: IL2/PD1: ratio of IL2FLGluc IC50 to PD1ssGluc IC50
In short: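 Flp-In 293 T-REx cells stably carrying doxycycline-inducible full-length IL-2 (aa 1-153) fused at its C-terminus to Gaussia luciferase, selected with hygromycin and blasticidin. Cells were plated the day before, then treated with compounds in DMSO/media containing doxycycline at 37° C, 5% CO2.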

[3] = tested on: multiple myeloma cell line NCI-H929; experiment: H929 Cell Viability Assay; assay type: cell-based, human; details: Homo sapiens, NCI-H929, 48 h, NCI-H929 cells, Celltiter-Glo
In short: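 NCI-H929 cells, resuspended in RPMI 1640 with 10% FBS and 2 mM glutamine, were treated with compound dilutions in DMSO/media and incubated 48 hours at 37° C, 5% CO2. Viability was read by CellTiter-Glo luminescence. Compounds drawn without stereochemistry were tested as stereoisomer mixtures.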

[4] = Liver Microsome Stability Assay (human); details: human liver microsomes, with NADPH, 1.0 uM compound
Procedure: as §1

[5] = tested on: multiple myeloma cell line U266B1; experiment: U266 Cell Viability Assay; assay type: cell-based, human; details: Homo sapiens, U-266, 48 h, U266B1 cells, Celltiter-Glo
In short: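 Cells grown in RPMI 1640 with 10% FBS, 2 mM glutamine and penicillin/streptomycin were exposed to compound dilutions in DMSO/media for 48 hours at 37° C., 5% CO2. Viability was read by CellTiter-Glo luminescence. Undefined stereocentres mean data for stereoisomer mixtures.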

[6] = Liver Microsome Stability Assay (monkey); details: monkey liver microsomes, with NADPH, 1.0 uM compound
Procedure: as §1

[7] = tested on: PD1-ss+10aa/Gaussia Luciferase; experiment: Dox-Induced PD1-ss-Gluc Assay; assay type: cell-based; details: 24 hr Dox induction; 293FRT/TO cells; read-out: 24 hr Dox Inducible PD1ssGluc 293FRT/TO: Mean IC50
In short: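 Flp-In 293 T-REx cells stably carrying a doxycycline-inducible Gaussia luciferase fused to the PD1 signal sequence plus 10 aa were plated the day before. Compound dilutions in DMSO/media containing doxycycline were then added and incubated at 37 °C, 5% CO2. Data for undefined stereochemistry refer to stereoisomer mixtures.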

[8] = Liver Microsome Stability Assay (mouse); details: mouse liver microsomes, with NADPH, 1.0 uM compound
Procedure: as §1

[9] = tested on: HER3-ss+4aa/Gaussia Luciferase; experiment: Dox-Induced Her3-ss-Gluc Assay; assay type: cell-based; details: 24 hr Dox induction; 293FRT/TO cells; read-out: 24 hr Dox Inducible Her3(ss + 4)Gluc 293FRT/TO: Mean IC50
In short: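 Stable Flp-In 293 T-REx line expressing Gaussia luciferase fused to the HER3 signal sequence plus 4 amino acids under tetracycline-regulated (T-REx) control. Cells plated the day before, then treated with compound dilutions in DMSO/media containing doxycycline and incubated at 37° C., 5% CO2.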

[10] = tested on: TNFα-FL/Gaussia Luciferase; experiment: Dox Induced TNFα-FL-Gluc Assay; assay type: cell-based; details: for IC50: 24 hr Dox induction, 293FRT/TO cells, read-out: 24 hr Dox Inducible TNFaFLGluc 293FRT/TO: Mean IC50; for 24 hr Dox Inducible TNFaFLGluc 293FRT/TO: TNF/PD1: ratio of TNFaFLGluc IC50 to PD1ssGluc IC50
In short: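 Flp-In 293 T-REx cells stably expressing full-length TNFα (aa 1-233) fused at its C-terminus to Gaussia luciferase under tetracycline-regulated control were plated the day before assay. Compound dilutions in DMSO/media containing doxycycline were added and incubated at 37 °C, 5% CO2. Unspecified stereochemistry denotes stereoisomer mixtures.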

SMILES	Liver Microsome Stability (Multiple Species): Rat - % Remaining after 30 min w/NADPH [1] [%]	IC50 [2] [µM]	24 hr Dox Inducible IL2FLGluc 293FRT/TO: IL2/PD1 [2]	EC50 [3] [µM]	Liver Microsome Stability (Multiple Species): Human - % Remaining after 30 min w/NADPH [4] [%]	EC50 [5] [µM]	Liver Microsome Stability (Multiple Species): Monkey - % Remaining after 30 min w/NADPH [6] [%]	IC50 [7] [µM]	Liver Microsome Stability (Multiple Species): Mouse - % Remaining after 30 min w/NADPH [8] [%]	IC50 [9] [µM]	IC50 [10] [µM]	24 hr Dox Inducible TNFaFLGluc 293FRT/TO: TNF/PD1 [10]
CC(=O)N1CCC(n2cnc(/C=C/c3csc(NC(=O)c4cccn4Cc4ccnc(F)c4)n3)c2)CC1 [Compound B91, (E)-N-(4-(2-(1-(1-acetylpiperidin-4-yl)-1H-imidazol-4-yl)vinyl)thiazol-2-yl)-1-((2-fluoropyridin-4-yl)methyl)-1H-pyrrole-2-carboxamide]	44.2	> 25	>4.1	> 25	0.22	> 25	0.24	6.05	33.9	> 25	> 25	>4.13
O=C(Nc1nc(/C=C/c2cn(C3CCOCC3)cn2)cs1)c1cccn1Cc1ccnc(F)c1 [Compound B92, (E)-1-((2-fluoropyridin-4-yl)methyl)-N-(4-(2-(1-(tetrahydro-2H-pyran-4-yl)-1H-imidazol-4-yl)vinyl)thiazol-2-yl)-1H-pyrrole-2-carboxamide]	2.02	12.1	170	22.8	0.19	> 25	0.04	0.0724	6.38	> 25	> 25	>345
CC(C)n1cc(/C=C/c2csc(NC(=O)c3cccn3Cc3ccnc(F)c3)n2)nc1C#N [Compound B93, (E)-N-(4-(2-(2-cyano-1-isopropyl-1H-imidazol-4-yl)vinyl)thiazol-2-yl)-1-((2-fluoropyridin-4-yl)methyl)-1H-pyrrole-2-carboxamide]	11.5	11	16	20.9	0.85	> 25	0.03	0.686	12.7	2.73	> 25	>36.4
CC(C)c1cc(/C=C/c2csc(NC(=O)c3cccn3Cc3ccnc(F)c3)n2)n(C)n1 [Compound B94, (E)-1-((2-fluoropyridin-4-yl)methyl)-N-(4-(2-(3-isopropyl-1-methyl-1H-pyrazol-5-yl)vinyl)thiazol-2-yl)-1H-pyrrole-2-carboxamide]	31.1	> 25	>24	> 25	0.55	> 25	0.06	1.02	20	0.877	> 25	>24.5
CC(C)n1ccnc1/C=C/c1csc(NC(=O)c2cccn2Cc2ccnc(F)c2)n1 [Compound B95, (E)-1-((2-fluoropyridin-4-yl)methyl)-N-(4-(2-(1-isopropyl-1H-imidazol-2-yl)vinyl)thiazol-2-yl)-1H-pyrrole-2-carboxamide]	0.54	> 25	>32	> 25	0.04	> 25	0.03	0.782	0.08	> 25	> 25	>32.0
CC(C)c1cc(/C=C/c2csc(NC(=O)c3cccn3Cc3ccnc(F)c3)n2)nn1C [Compound B96, (E)-1-((2-fluoropyridin-4-yl)methyl)-N-(4-(2-(5-isopropyl-1-methyl-1H-pyrazol-3-yl)vinyl)thiazol-2-yl)-1H-pyrrole-2-carboxamide]	13.6	7.59	25	20.7	0.79	> 25	0.19	0.304	8.33	3.3	> 25	>82.3
CC1CCn2cnc(/C=C/c3csc(NC(=O)c4cccn4Cc4ccnc(F)c4)n3)c2C1 (stereo not drawn) [Compound B97, (E)-1-((2-fluoropyridin-4-yl)methyl)-N-(4-(2-(7-methyl-5,6,7,8-tetrahydroimidazo[1,5-a]pyridin-1-yl)vinyl)thiazol-2-yl)-1H-pyrrole-2-carboxamide]	10.8	7.51	31	> 25	0.3	> 25	0.13	0.244	13.8	4.79	> 25	>103
CC1CCc2c(/C=C/c3csc(NC(=O)c4cccn4Cc4ccnc(F)c4)n3)ncn2C1 (stereo not drawn) [Compound B98, (E)-1-((2-fluoropyridin-4-yl)methyl)-N-(4-(2-(6-methyl-5,6,7,8-tetrahydroimidazo[1,5-a]pyridin-1-yl)vinyl)thiazol-2-yl)-1H-pyrrole-2-carboxamide]	6.91	2.29	74	> 25	0.2	> 25	0.72	0.0307	6.81	1.59	> 25	>814
Cc1cc(C(=O)Nc2nc(/C=C/c3cn(C(C)C)cn3)cs2)n(Cc2ccnc(F)c2)c1 [Compound B99, (E)-1-((2-fluoropyridin-4-yl)methyl)-N-(4-(2-(1-isopropyl-1H-imidazol-4-yl)vinyl)thiazol-2-yl)-4-methyl-1H-pyrrole-2-carboxamide]	49.7	> 25	>28	> 25	4.91	> 25	2.99	0.88	49.5	10.1	> 25	>28.4
